The results in this text go back to patent US4259235A, “Tricyclic nitrogenous compounds having string plant growth regulating properties” (BASF Aktiengesellschaft, priority 1977, dated 1981).

Experiment [1] has as its system spring barley. Description: Growth height of spring barley, leaf treatment, Example 10. It is filed as in vivo, spring barley ("Union" variety). The method, then:
(§1) Spring wheat ("Opal" variety) and spring barley ("Union" variety) were grown under greenhouse conditions in plastic dishes 11.5 cm in diameter, in a peat substrate provided with sufficient nutrients. For the soil (preemergence) treatment, the active ingredients were poured, at two application rates, as aqueous formulations onto the surface of the substrate after sowing.
(§2) Leaf treatment was effected by spraying the plants at a growth height of 10 cm with aqueous formulations of the active ingredients at two application rates.
(§3) The plant height was measured at the end of the experiment. The figures obtained show the shortening effect of the active ingredients under investigation. The prior art compound β-chloroethylphosphonic acid (Ethephon, German Printed Application DAS No. 1,667,968) was used for comparison purposes.

Experiment [2] deals with spring wheat. Nature of the experiment: Growth height of spring wheat, leaf treatment, Example 10. It is filed as in vivo, spring wheat ("Opal" variety). Here is the method: as §1, §2, §3
Experiment [3] deals with spring wheat. Description: Growth height of spring wheat, soil treatment, Example 10. It is filed as in vivo, spring wheat ("Opal" variety). The method, then:
as §1, §3

Experiment [4] has as its system spring barley. Nature of the experiment: Growth height of spring barley, soil treatment, Example 10. It is filed as in vivo, spring barley ("Union" variety). The method, then: as §1, §3
Experiment [5] relates to spring barley. Description: Growth height of spring barley, soil treatment, Example 11. It is filed as in vivo, spring barley ("Union" variety). Here is the method:
(§4) The test plants--spring wheat ("Opal" variety), spring barley ("Union" variety) and spring rye ("Petkuser" variety)--were grown under greenhouse conditions in plastic dishes 11.5 cm in diameter, in a peat substrate provided with sufficient nutrients.
The soil (preemergence) treatment was effected after sowing by pouring aqueous formulations of the active ingredients, at four application rates, onto the surface of the substrate.
(§5) The shortening effect caused by the compounds was shown by measurements of the height of the plants at the end of the experiment.
(§6) The prior art compound N,N,N-trimethyl-N-β-chloroethylammonium chloride (CCC, German Printed Application DAS No. 1,294,734) was used for comparison purposes.

Experiment [6] deals with spring barley. Nature of the experiment: Growth height of spring barley, leaf treatment, Example 11. It is filed as in vivo, spring barley ("Union" variety). The method, then: as §4
(§7) Leaf treatment was effected by spraying the plants at a growth height of 11 cm with aqueous formulations of the active ingredients, at three application rates.
as §5, §6

The test system of a further experiment is spring rye. Nature of the experiment: Growth height of spring rye, leaf treatment, Example 11. It is filed as in vivo, spring rye ("Petkuser" variety). Here is the method:
as §4, §7, §5, §6

SMILES strings stand for the structures.

With `FC(F)(F)c1cccc(NC2C(I)C3CC2C2N=NC32)c1` (stereo not drawn) [drawing 415], in the experiment on spring barley [1] (1.5 kg/ha), the Plant height stood at 25.0 cm and the “Plant height, % of untreated control” value is 89.3%. Moreover, in the experiment on spring barley [1] (6.0 kg/ha), the Plant height is listed as 24.0 cm and the “Plant height, % of untreated control” value is 85.7%.
On to `O=P(O)(O)CCCl` [Ethephon, β-chloroethylphosphonic acid, reference compound], for which the Plant height with spring wheat [2] (1.5 kg/ha) is 30.0 cm; with spring wheat [2] (6.0 kg/ha), 25.0 cm; in the experiment with spring wheat [3] (3 kg/ha), 29.0 cm; with spring wheat [3] (12 kg/ha), 25.0 cm; in the experiment on spring barley [4] (3 kg/ha), 32.0 cm; with spring barley [4] (12 kg/ha), 27.5 cm. Further, the Plant height in the experiment on spring barley [1] (1.5 kg/ha) worked out at 27.0 cm; in the experiment on spring barley [1] (6.0 kg/ha), 24.5 cm. Further, the “Plant height, % of untreated control” value in the experiment on spring wheat [2] (1.5 kg/ha) is reported as 91.5%; in the experiment with spring wheat [2] (6.0 kg/ha), 76.2%; in the experiment with spring wheat [3] (3 kg/ha) it was 90.6%; with spring wheat [3] (12 kg/ha), 78.1%; with spring barley [4] (3 kg/ha), 93.3%; in the experiment with spring barley [4] (12 kg/ha) it was 80.2%. In addition, the “Plant height, % of untreated control” value in the experiment with spring barley [1] (1.5 kg/ha) was determined as 96.4%; with spring barley [1] (6.0 kg/ha), 87.5%.
As for `O=[N+]([O-])c1ccc(C2=NOC3C4CC(C5N=NC45)C23)cc1` (stereo not drawn) [drawing 406], in the experiment with spring barley [4] (3 kg/ha), the Plant height is 27.0 cm and the “Plant height, % of untreated control” value turned out to be 78.8%. Besides, in the experiment with spring barley [4] (12 kg/ha), the Plant height turned out to be 24.0 cm and the “Plant height, % of untreated control” value is given as 70.0%.
With `O=[N+]([O-])c1ccc(C2=NOC3C4CC(C5N=NC45)C23)cc1` (stereo not drawn) [drawing 412], in the experiment on spring barley [1] (1.5 kg/ha), the Plant height was found to be 25.0 cm and the “Plant height, % of untreated control” value was determined as 89.3%. Moreover, in the experiment on spring barley [1] (6.0 kg/ha), the Plant height was 24.5 cm and the “Plant height, % of untreated control” value came to 87.5%.
For `c1ccc(C2=NNC3C4CC(C5N=NC45)C23)cc1` (stereo not drawn) [drawing 417], the Plant height with spring barley [5] (0.75 kg/ha) was found to be 32.0 cm; with spring barley [5] (1.50 kg/ha) it was 28.0 cm; in the experiment on spring barley [5] (3.00 kg/ha) it was 27.0 cm; in the experiment on spring barley [5] (6.00 kg/ha) it was 23.0 cm. In addition, the “Plant height, % of untreated control” value with spring barley [5] (0.75 kg/ha) was determined as 97.6%; in the experiment on spring barley [5] (1.50 kg/ha) it was 85.4%; in the experiment with spring barley [5] (3.00 kg/ha), 82.3%; in the experiment on spring barley [5] (6.00 kg/ha) it was 70.1%.
For `O=[N+]([O-])c1ccc(C2=NOC3C4CC(C5N=NC45)C23)cc1` (stereo not drawn) [drawing 400], in the experiment on spring wheat [2] (1.5 kg/ha), the Plant height is recorded as 29.0 cm and the “Plant height, % of untreated control” value came to 88.4%. Besides, in the experiment with spring wheat [2] (6.0 kg/ha), the Plant height is on record as 27.0 cm and the “Plant height, % of untreated control” value turned out to be 82.3%.
As to `Cc1ccc(C2=NOC3C4CC(C5N=NC45)C23)cc1` (stereo not drawn) [drawing 413], the Plant height was 25.5 cm with spring barley [1] (1.5 kg/ha) and 25.0 cm with spring barley [1] (6.0 kg/ha). For the same compound, the “Plant height, % of untreated control” value is 91.1% in the experiment on spring barley [1] (1.5 kg/ha) and 89.3% in the experiment on spring barley [1] (6.0 kg/ha).
`COc1ccc(C2=NOC3C4CC(C5N=NC45)C23)cc1` (stereo not drawn) [drawing 408]: in the experiment with spring barley [4] (3 kg/ha), the Plant height amounted to 30.0 cm and the “Plant height, % of untreated control” value came to 87.5%. For the same compound, in the experiment with spring barley [4] (12 kg/ha), the Plant height is on record as 29.0 cm and the “Plant height, % of untreated control” value turned out to be 84.5%.
Turning to `Clc1ccc(C2N=NC3C4CC(C5N=NC45)C23)cc1` (stereo not drawn) [drawing 410], in the experiment with spring barley [1] (1.5 kg/ha), the Plant height was found to be 22.0 cm and the “Plant height, % of untreated control” value came to 78.6%. In the experiment on spring barley [1] (6.0 kg/ha), the Plant height was determined as 19.5 cm and the “Plant height, % of untreated control” value worked out at 69.6%.
With `Clc1ccc(C2N=NC3C4CC(C5N=NC45)C23)cc1` (stereo not drawn) [drawing 392], in the experiment on spring wheat [3] (3 kg/ha), the Plant height is 17.0 cm and the “Plant height, % of untreated control” value came to 53.1%. Also, in the experiment on spring wheat [3] (12 kg/ha), the Plant height is 14.0 cm and the “Plant height, % of untreated control” value stood at 43.8%.
`Clc1ccc(NC2C(Cl)C3CC2C2N=NC32)cc1` (stereo not drawn) [drawing 419]: the results for the Plant height in the experiment with spring barley [6] (0.75 kg/ha), with spring barley [6] (1.50 kg/ha) and with spring barley [6] (3.00 kg/ha) were 26.0 cm, 25.5 cm and 23.5 cm, respectively. The “Plant height, % of untreated control” value was determined as 93.5% in the experiment with spring barley [6] (0.75 kg/ha), 91.7% with spring barley [6] (1.50 kg/ha) and 84.5% with spring barley [6] (3.00 kg/ha).
Consider `Clc1ccc(C2=NOC3C4CC(C5N=NC45)C23)cc1` (stereo not drawn) [drawing 397], for which, in the experiment with spring wheat [3] (3 kg/ha), the Plant height is on record as 16.0 cm and the “Plant height, % of untreated control” value came to 50.0%. Moreover, in the experiment on spring wheat [3] (12 kg/ha), the Plant height is recorded as 15.0 cm and the “Plant height, % of untreated control” value was 46.9%.
On to `c1ccc(C2N=NC3C4CC(C5N=NC45)C23)cc1` (stereo not drawn) [drawing 422], for which the Plant height in the experiment on spring rye (0.75 kg/ha) was 23.0 cm; with spring rye (1.50 kg/ha), 20.5 cm; in the experiment with spring rye (3.00 kg/ha) it was 20.5 cm. Moreover, the “Plant height, % of untreated control” value in the experiment on spring rye (0.75 kg/ha) was found to be 80.7%; in the experiment with spring rye (1.50 kg/ha), 71.9%; in the experiment on spring rye (3.00 kg/ha) it was 71.9%.
